# Source: patent US8314093B2, “2,4-pyrimidinediamine compounds for treating or preventing autoimmune diseases” (Rigel Pharmaceuticals, Inc., priority 2006, dated 2012)
# Test system: cultured human mast cells (CHMC), IgE-induced degranulation
# Experiment: LD Tryptase assay: CHMC low cell density IgE activation, tryptase release
# Format: cell-based
# Settings: anti-IgE stimulation, 8 pt
# Protocol: Inhibition of degranulation is measured at both low and high cell density by quantifying the release of the granule specific factors tryptase, histamine and hexosaminidase. Inhibition of release and/or synthesis of lipid mediators is assessed by measuring the release of leukotriene LTC4 and inhibition of release and/or synthesis of cytokines is monitored by quantifying TNF-α, IL-6 and IL-13. Tryptase and hexosaminidase are quantified using fluorogenic substrates as described in their respective examples. Histamine, TNFα, IL-6, IL-13 and LTC4 are quantified using the following commercial ELISA kits: histamine (Immunotech #2015, Beckman Coulter), TNFα (Biosource #KHC3011), IL-6 (Biosource #KMC0061), IL-13 (Biosource #KHC0132) and LTC4 (Cayman Chemical #520211). The protocols of the various assays are provided below.
# CHMC Low Cell Density IgE Activation: Tryptase and LTC4 Assays
# To duplicate 96-well U-bottom plates (Costar 3799) add 65 ul of compound dilutions or control samples that have been prepared in MT [137 mM NaCl, 2.7 mM KCl, 1.8 mM CaCl2, 1.0 mM MgCl2, 5.6 mM Glucose, 20 mM Hepes (pH 7.4), 0.1% Bovine Serum Albumin, (Sigma A4503)] containing 2% MeOH and 1% DMSO. Pellet CHMC cells (980 rpm, 10 min) and resuspend in pre-warmed MT. Add 65 ul of cells to each 96-well plate. Depending on the degranulation activity for each particular CHMC donor, load 1000-1500 cells/well. Mix four times followed by a 1 hr incubation at 37° C. During the 1 hr incubation, prepare 6× anti-IgE solution [rabbit anti-human IgE (1 mg/ml, Bethyl Laboratories A80-109A) diluted 1:167 in MT buffer]. Stimulate cells by adding 25 ul of 6× anti-IgE solution to the appropriate plates. Add 25 ul MT to un-stimulated control wells. Mix twice following addition of the anti-IgE. Incubate at 37° C. for 30 minutes. During the 30 minute incubation, dilute the 20 mM tryptase substrate stock solution [(Z-Ala-Lys-Arg-AMC 2TFA; Enzyme Systems Products, #AMC-246)] 1:2000 in tryptase assay buffer [0.1 M Hepes (pH 7.5), 10% w/v Glycerol, 10 uM Heparin (Sigma H-4898) 0.01% NaN3]. Spin plates at 1000 rpm for 10 min to pellet cells. Transfer 25 ul of supernatant to a 96-well black bottom plate and add 100 ul of freshly diluted tryptase substrate solution to each well. Incubate plates at room temperature for 30 min. Read the optical density of the plates at 355 nm/460 nm on a spectrophotometric plate reader.
row,SMILES,IC50
1,"COc1cc(Nc2ncc(F)c(Nc3ccc4c(c3)N(Cc3ccccn3)C(=O)CO4)n2)cc(O)c1OC [Example 7, 5-Fluoro-N2-(3-hydroxy-4,5-dimethoxyphenyl)-N4[3-oxo-4-(2-pyridylmethyl)-benz[1,4]oxazin-6-yl]-2,4-pyrimidinediamine]",< 5000 nM
2,"COc1cc(Nc2ncc(F)c(Nc3ccc4c(c3)NC(=O)CS4)n2)cc(O)c1OC [Example 1, 5-Fluoro-N2-(3-hydroxy-4,5-dimethoxyphenyl)-N4-[3-oxo-benzo[1,4]thiazin-6-yl]-2,4-pyrimidinediamine]",< 1000 nM
3,"COc1ccc(CN2C(=O)C(C)Oc3ccc(Nc4nc(Nc5cc(O)c(OC)c(OC)c5)ncc4F)cc32)cc1 (racemic) [Example 9, (R/S)-5-Fluoro-N2-(3-hydroxy-4,5-dimethoxyphenyl)-N4-[2-methyl-3-oxo-4-(4-methoxybenzyl)-benz[1,4]oxazin-6-yl]-2,4-pyrimidinediamine]",< 5000 nM
4,"COc1ccc(CN2C(=O)C(C)Sc3ccc(Nc4nc(Nc5cc(O)c(OC)c(OC)c5)ncc4F)cc32)cc1 (racemic) [Example 10, (R/S)-5-Fluoro-N2-(3-hydroxy-4,5-dimethoxyphenyl)-N4-[2-methyl-3-oxo-4-(4-methoxybenzyl)-benzo[1,4]thiazin-6-yl]-2,4-pyrimidinediamine]",< 5000 nM
5,"COc1cc(Nc2ncc(F)c(Nc3ccc4c(c3)N(C)C(=O)CS4)n2)cc(O)c1OC [Example 12, 5-Fluoro-N2-(3-hydroxy-4,5-dimethoxyphenyl)-N4-(4-methyl-3-oxo-benzo[1,4]thiazin-6-yl)-2,4-pyrimidinediamine]",< 1000 nM
6,"COc1cc(Nc2ncc(F)c(Nc3ccc4c(c3)N(C)C(=O)C(C)(C)S4(=O)=O)n2)cc(O)c1OC [Example 11, 5-Fluoro-N2-(3-hydroxy-4,5-dimethoxyphenyl)-N4-(2,2,4-trimethyl-1,1,3-trioxo-benzo[1,4]thiazin-6-yl)-2,4-pyrimidinediamine]",< 1000 nM

# Further lines, results first:
row,IC50,SMILES
1,< 1000 nM,"COc1cc(Nc2ncc(F)c(Nc3ccc4c(c3)NC(=O)CO4)n2)cc(O)c1OC [Example 5, 5-Fluoro-N2-(3-hydroxy-4,5-dimethoxyphenyl)-N4-[3-oxo-benz[1,4]oxazin-6-yl]-2,4-pyrimidinediamine]"
2,< 1000 nM,"COc1cc(Nc2ncc(F)c(Nc3ccc4c(c3)NC(=O)C(C)(C)S4)n2)cc(O)c1OC [Example 2, N4-[2,2-Dimethyl-3-oxo-benzo[1,4]thiazin-6-yl]-5-fluoro-N2-(3-hydroxy-4,5-dimethoxyphenyl)-2,4-pyrimidinediamine]"
3,< 1000 nM,"COc1cc(Nc2ncc(F)c(Nc3ccc4c(c3)NC(=O)C(C)(C)O4)n2)cc(O)c1OC [Example 3, N4-[2,2-Dimethyl-3-oxo-benz[1,4]oxazin-6-yl]-5-fluoro-N2-(3-hydroxy-4,5-dimethoxyphenyl)-2,4-pyrimidinediamine]"
4,< 1000 nM,"COc1cc(Nc2ncc(F)c(Nc3ccc4c(n3)NC(=O)C(C)(C)O4)n2)cc(O)c1OC [Example 4, N4-[2,2-Dimethyl-3-oxo-pyrid[1,4]oxazin-6-yl]-5-fluoro-N2-(3-hydroxy-4,5-dimethoxyphenyl)-2,4-pyrimidinediamine]"
5,< 1000 nM,"COc1cc(Nc2ncc(F)c(Nc3ccc4c(n3)NCC(C)(C)O4)n2)cc(O)c1OC [Example 13, N4-(3,4-Dihydro-2H-2,2-dimethyl-5-pyrido[1,4]oxazin-6-yl)-N2-[3,4-dimethoxyphenyl-5-hydroxyphenyl]-5-fluoro-2,4-pyrimidinediamine]"
6,< 1000 nM,"COc1cc(Nc2ncc(F)c(Nc3ccc4c(c3)NC(=O)C(F)(F)O4)n2)cc(O)c1OC [Example 6, N4-[2,2-Difluoro-3-oxo-benz[1,4]oxazin-6-yl]-5-fluoro-N2-(3-hydroxy-4,5-dimethoxyphenyl)-2,4-pyrimidinediamine]"
7,< 1000 nM,"COc1cc(Nc2ncc(F)c(Nc3ccc4c(c3)C(=O)NC(=O)C4(C)C)n2)cc(O)c1OC [Example 8, 5-Fluoro-N2-(3-hydroxy-4,5-dimethoxyphenyl)-N4-(1,3-(2H)-4,4-dimethylisoquinolinedione-7-yl)-2,4-pyrimidinediamine]"
